# Source: article PMC8401550, “Structural Characterization of a Macrocyclic Peptide Modulator of the PD-1/PD-L1 Immune Checkpoint Axis” (Molecules, 2021)
# System: PD-1/PD-L1 interaction, Jurkat cells overexpressing PD-1 with CHO-K1 cells overexpressing TCR activator and PD-L1
# Test: Cell-surface PD-L1/PD-1 immune checkpoint interaction assay (NFAT-luciferase reporter)
# Assay type: cell-based
# Conditions: control antibody; increase in luciferase reporter; fit of Hill equation; mean ± SD from three independent experiments
# Experimental: CHO-K1 expressing the TCR activator and PD-L1 and Jurkat T cells carrying an NFAT-dependent luciferase gene and overexpressing PD-1 were obtained from Promega. The cells were cultured in RPMI 1640 medium supplemented with 10% FBS with hygromycin B (50 µg/mL) and G418 (250 µg/mL) at 37 °C with 5% CO2.
# 24 h before the experiment, the CHO-K1 cells were seeded on a 96-well plate in an amount of 10,000 cells/well. 2.5-fold serial dilutions of p104 were prepared in DMSO followed by 1000× dilution in the assay buffer (RPMI 1640, 1% FBS). The culture medium was replaced with the assay buffer containing 0.02–250 µM of p104. The Jurkat cells in the amount of 50,000 cells/well were added and co-cultured for 3 h in standard conditions. Luminescence was determined using Bio-Glo Assay reagent (Promega, Madison, WI, USA) following manufacturer protocol. Data were normalized at vehicle-treated control.
substance,measurement,value
Atezolizumab: FDA-approved therapeutic monoclonal antibody targeting PD-L1,EC50,3.4 ± 0.2 nM
